Key:
Assay type in all cases: in vivo
Heliothis virescens = test: Action against Heliothis virescens caterpillars (sprayed soybean plants); settings: 144 h, 400 ppm spray on young soybean plants, 10 caterpillars in the first stage, evaluation 6 days later, read-out: percentage reduction in population and percentage reduction in feeding damage (% activity)
Description: (§1) Young soybean plants are sprayed with an aqueous emulsion spray mixture comprising 400 ppm of test compound. After the spray-coating has dried, the soybean plants are populated with 10 caterpillars of Heliothis virescens in the first stage and placed in a plastics container. Evaluation is made 6 days later. The percentage reduction in population and the percentage reduction in feeding damage (% activity) are determined by comparing the number of dead caterpillars and the feeding damage on the treated plants with that on the untreated plants.

Plutella xylostella = test: Action against Plutella xylostella caterpillars (sprayed cabbage plants); settings: 72 h, 400 ppm spray on young cabbage plants, 10 caterpillars in the third stage, evaluation 3 days later, read-out: percentage reduction in population and percentage reduction in feeding damage (% activity)
Description: as §1, with “cabbage” for “soybean”, “Plutella xylostella” for “Heliothis virescens”, “third” for “first”, “3” for “6”

Spodoptera littoralis = test: Action against Spodoptera littoralis (sprayed soybean plants); settings: 72 h, 400 ppm spray on young soybean plants, 10 caterpillars in the first stage, 3 days later, read-out: percentage reduction in population and percentage reduction in feeding damage (% activity)
Description: Young soybean plants are sprayed with an aqueous emulsion spray mixture comprising 400 ppm of test compound and, after the spray-coating has dried, the plants are populated with 10 caterpillars of Spodoptera littoralis in the first stage and then placed in a plastics container. 3 days later, the percentage reduction in population and the percentage reduction in feeding damage (% activity) are determined by comparing the number of dead caterpillars and the feeding damage on the treated plants with that on untreated plants.

Measured: inhibition at 400 ppm

CCn1nnc(-c2ccc(OCCCOc3c(Cl)cc(OCC=C(Cl)Cl)cc3Cl)cc2)n1 [Compound 1.4, 5-(4-{3-[2,6-dichloro-4-(3,3-dichloro-allyloxy)-phenoxy]-propoxy}-phenyl)-2-ethyl-2H-tetrazole]
> 80%: all assays above

ClC(Cl)=CCOc1cc(Cl)c(OCCCOc2ccc(-c3noc(Cl)n3)cc2)c(Cl)c1 [Compound 1.16, 5-chloro-3-(4-{3-[2,6-dichloro-4-(3,3-dichloro-allyloxy)-phenoxy]-propoxy}-phenyl)-[1,2,4]oxadiazole]
> 80%: all assays above

ClC(Cl)=CCOc1cc(Cl)c(OCCCOc2ccc(-c3cc(Cl)on3)cc2)c(Cl)c1 [Compound 1.17, 5-chloro-3-(4-{3-[2,6-dichloro-4-(3,3-dichloro-allyloxy)-phenoxy]-propoxy}-phenyl)-isoxazole]
> 80%: all assays above

Source: patent US7608631B2, “4-(3,3-dihalo-allyloxy) phenol derivatives having pesticidal properties” (Syngenta Crop Protection, Inc., priority 2002, dated 2009)
